# Reference: PubChem BioAssay AID1996
# Conditions: buffer; pH 7.4; 200.0 µM
row,Structure (SMILES),solubility kinetic
1,CC(NC(=O)c1ccc(Br)o1)c1ccccc1 (stereo not drawn),35.8 µg/mL
2,COC(=O)CNc1nc(Cl)nc(NC2CCCCC2)n1,27.7 µg/mL
3,Cc1c(NS(=O)(=O)c2cccc(C(=O)N3CCC(C(N)=O)CC3)c2)c(=O)n(-c2ccccc2)n1C,> 74.6 µg/mL
4,c1cnc(-c2noc(CN3CCN(C4CCCC4)CC3)n2)cn1,> 47.2 µg/mL
5,Cc1nc2ccccc2c(=O)n1-c1ccc(F)cc1F,36.9 µg/mL
6,CC(=O)O.CC(C)CC1NC(C(=O)O)Cc2c1[nH]c1ccccc21 (stereo not drawn),48.4 µg/mL
7,Cc1cc(OC(C)C(=O)Nc2cccnc2)ccc1Cl (stereo not drawn),35.8 µg/mL
8,CN(c1ccc(C(=O)Nc2cccnc2)cc1)S(=O)(=O)c1ccccc1,> 55.1 µg/mL
9,CCN(CC)C(=O)c1csc(Nc2cccc3ccccc23)n1,7.2 µg/mL
10,O=C(Nc1ccc(Cl)cc1Cl)N1CCN(c2ncccn2)CC1,> 52.8 µg/mL
11,O=c1c2ccccc2[nH]c(=S)n1Cc1ccccc1,< 0.3 µg/mL
12,O=C(CN1C(=O)c2ccc([N+](=O)[O-])cc2C1=O)Nc1nccs1,26.2 µg/mL
13,Cc1cc(NS(=O)(=O)c2ccc(NC(=O)c3ccc(F)cc3)cc2)nc(C)n1,> 60.1 µg/mL
14,O=C(NC(=S)Nc1cccc(-c2ccc(CO)o2)c1)c1cccs1,4.7 µg/mL
15,CCOC(=O)c1sc(/N=C/c2c(O)ccc3ccccc23)cc1C,9.8 µg/mL
16,O=C(CS(=O)(=O)c1ccccc1)Nc1ccc(Cl)cn1,> 46.6 µg/mL
17,Cc1ccc(C)c(CN2CCSCC2)c1,2.1 µg/mL
18,Cc1noc(C)c1C(=O)OCC(=O)N(C)C1CCS(=O)(=O)C1 (stereo not drawn),> 49.6 µg/mL
19,O=C(NCCCNC(=O)c1cnccn1)c1cccc(F)c1,40.2 µg/mL
20,Cc1ccc[n+](CC(=O)Nc2ccc(C)c(C)c2)c1.[Cl-],> 43.6 µg/mL
21,O=S(=O)(NCCCc1ccccc1)c1ccc(Br)cc1,10.7 µg/mL
22,CCn1c(C)cc(O)cc1=O,> 23 µg/mL
23,O=C(CC12CC3CC(CC(C3)C1)C2)Nc1c(F)cccc1F,< 0.7 µg/mL
24,CC(=O)c1ccc(OC(C)C(=O)NC2CCCCC2C)cc1 (stereo not drawn),> 45.5 µg/mL

row,Structure (SMILES),solubility kinetic
1,CCS(=O)(=O)Nc1cccc(-c2nc3cccnc3s2)c1,45.4 µg/mL
2,COc1cc2ccccc2cc1C(=O)Nc1ccc2oc(=O)ccc2c1,< 0.7 µg/mL
3,Cc1ccc(NC2=CC(=O)C(=O)c3ccccc32)c(C)c1,3.5 µg/mL
4,COc1ccc(/C=N/N2CCOCC2)cc1Cn1cc([N+](=O)[O-])cn1,> 51.8 µg/mL
5,CCN(c1ccccc1)S(=O)(=O)c1ccc(Cl)c(C(=O)O)c1,> 51 µg/mL
6,CCCN(Cc1cc(=O)[nH]c2ccccc12)C(=O)CC,38.5 µg/mL
7,CC(C)Nc1nc(SC(C)C(=O)Nc2ccccc2)nc(N(C)C)n1 (stereo not drawn),26.5 µg/mL
8,O=C(NCCc1ccc(Cl)cc1)C1COc2ccccc2O1 (stereo not drawn),5.5 µg/mL
9,COc1cccc(C(=O)NOCc2ccc(C)cc2)c1OC,> 45.2 µg/mL
10,O=C(CNS(=O)(=O)Cc1ccccc1)NCc1ccccc1,12.9 µg/mL
11,CC(C)CCNC(=O)C(=O)Nc1ccccc1,2.6 µg/mL
12,Cc1ccc(NC(=O)CNC(=O)c2cccs2)c(O)c1,21.7 µg/mL
13,Cn1nccc1C(=O)OCC(=O)Nc1ccc(S(N)(=O)=O)cc1,> 50.8 µg/mL
14,Cc1ccc(S(=O)(=O)NC(=O)c2ccc(F)cc2)c(C)c1,> 46.1 µg/mL
15,CCC(Sc1nc(C)cc(C)n1)C(=O)Nc1nccs1 (stereo not drawn),43.1 µg/mL
16,CCCCn1c(N)c(N(CC)C(=O)c2cccc(F)c2)c(=O)[nH]c1=O,52.1 µg/mL
17,O=C(CCNC(=O)c1ccccc1Cl)Nc1nc2ccccc2[nH]1,4.9 µg/mL
18,CCOC(=O)C1=C(O)C(=O)N(Cc2ccccc2)C1,> 39.2 µg/mL
19,COc1ccc(CCNc2cc(C)nc(N)n2)cc1OC,> 43.3 µg/mL
20,Cc1ccc(NC(=O)CSc2ccc3c(c2)OCCO3)c(O)c1,36.9 µg/mL
21,Cl.O=C(Nc1ncc([N+](=O)[O-])s1)c1cccs1,> 43.8 µg/mL
22,CCOc1ccc(S(=O)(=O)Nc2cc(NS(=O)(=O)c3ccc(OCC)cc3)cc(C(=O)O)c2)cc1,> 78.1 µg/mL
23,CN(c1ccccc1)S(=O)(=O)c1cccc(NC(=O)CSc2nccc(=O)[nH]2)c1,> 64.6 µg/mL
24,O=C(Nc1ccccn1)c1cc2ccccc2cc1O,0.5 µg/mL

row,Structure (SMILES),solubility kinetic
1,O=c1oc(-c2cccc([N+](=O)[O-])c2)nc2ccccc12,3.2 µg/mL
2,COc1ccc(NC(=O)NC2CCCCCCC2)cc1,2.5 µg/mL
3,CN(C)c1nc(Nc2ccc(F)cc2)nc(Oc2ccc(F)cc2)n1,< 0.1 µg/mL
4,O=C(Nc1nc2ccsc2c(=O)s1)C1CCC1,8.1 µg/mL
5,O=C1CSC(c2ccccc2)N1c1ccc(F)cc1F (stereo not drawn),38 µg/mL
6,COc1cccc(C(=O)NCC(=O)OCC(=O)NC2CCCCC2)c1,> 52.3 µg/mL
7,Cc1cc(C)c(OCCn2ccnc2)c(C)c1,31.5 µg/mL
8,O=C(c1ccc([N+](=O)[O-])s1)N1CCc2ccccc21,< 0.3 µg/mL
9,COC(=O)CSc1nnc(CNC(=O)c2ccc(OC)c(OC)c2)n1C,> 57.1 µg/mL
10,Cc1ccc(C(=O)Nc2ccc(S(=O)(=O)N3CCCC3)cc2)cc1,1.6 µg/mL
11,Cc1ccc(C(CNC(=O)c2ccco2)N2CCN(C)CC2)cc1 (stereo not drawn),> 49.1 µg/mL
12,COc1ccc(C(=O)NC(=S)N2CCN(c3ccccc3O)CC2)cc1,6.1 µg/mL
13,O=C(CC1CCCC1)N1CCN(S(=O)(=O)c2ccccc2)CC1,> 50.5 µg/mL
14,O=C1CCCC2=C1C(c1cccs1)CC(=O)N2c1ccc(F)cc1 (stereo not drawn),40.7 µg/mL
15,COc1ccccc1C(=O)NCCCNC(=O)c1cccnc1,36.8 µg/mL
16,O=C1CN(S(=O)(=O)c2ccc([N+](=O)[O-])cc2)CC(=O)N1,> 44.9 µg/mL
17,CN(CC(=O)Nc1ccc(F)c(F)c1F)C(=O)C1=COCCO1,> 49.5 µg/mL
18,Clc1ccc(-c2nc3cc(CN4CCCCC4)ccc3o2)cc1,23.1 µg/mL
19,Cc1ccc(CNC(=O)CNC(=O)c2ccco2)cc1,> 40.8 µg/mL
20,NS(=O)(=O)c1ccc(NC(=O)c2ccc3c(c2)CCCC3)cc1,< 0.4 µg/mL
21,CCOC(=O)C1=C(COC(=O)c2ccc([N+](=O)[O-])s2)NC(=O)NC1C (stereo not drawn),> 55.4 µg/mL
22,COc1cc(NC(=O)CCN2CCN(C)CC2)cc(OC)c1,> 46.1 µg/mL
23,Cn1cnnc1SCC(=O)Nc1ccccc1F,> 39.9 µg/mL
24,CC1(C)C(CC2OCC(CN3CCCCC3)O2)[C@H]2CC[C@@H]1C2 (stereo partly drawn),25.9 µg/mL

row,Structure (SMILES),solubility kinetic
1,O=C(COC(=O)c1cc(=O)[nH]c(=O)[nH]1)Nc1cccc(Cl)c1,> 48.6 µg/mL
2,Cn1c2c(c(=O)n(C)c1=O)C(c1cccc(F)c1)C(C#N)=C(N)O2 (stereo not drawn),45.5 µg/mL
3,COc1ccc(S(=O)(=O)NCCN2CCNC2=O)cc1OC,47.9 µg/mL
4,CCOC(=O)c1c(C)oc2c1c(C=NCC1CCCO1)c(O)c1ccccc12 (stereo not drawn),< 0.8 µg/mL
5,COCC(=O)N1CCN(c2cccc(Cl)c2)CC1,> 40.3 µg/mL
6,COc1ccc2c(C#N)c3ccccn3c2c1,0.9 µg/mL
7,CCc1ccc(NCc2ccc(OC)c(Cn3ccnc3)c2)cc1,40.2 µg/mL
8,O=C(Nc1ccccc1-c1ccccc1)C1CCCC1,32.4 µg/mL
9,Nc1nonc1C(=O)N1CCCCC1,28.2 µg/mL
10,CC1(C)C(=O)Nc2ccccc2N1C(=O)COC(=O)c1ccc([N+](=O)[O-])o1,12.1 µg/mL
11,CCc1ccc(NC(=S)N2CCCC(C(F)(F)F)C2)cc1 (stereo not drawn),6.1 µg/mL
12,O=C(CCCCC(=O)Nc1ccccc1)Nc1ccccc1,3.1 µg/mL
13,COc1ccc(CSCC(=O)Nc2ccccc2)cc1[N+](=O)[O-],> 49.9 µg/mL
14,O=C(CN1C(=O)c2ccccc2C1=O)Nc1cccc(O)c1,37 µg/mL
15,N#Cc1ccc(OCC(=O)NCCCn2ccnc2)cc1,> 42.6 µg/mL
16,COC(=O)c1ccc(Cn2cnc3cnccc32)cc1,29.9 µg/mL
17,COc1ccc(S(=O)(=O)Nc2noc3ccccc23)cc1OC,> 50.2 µg/mL
18,CN(C)CC#CCC(O)(c1ccccc1)C1CCCCC1 (stereo not drawn),42.7 µg/mL
19,N#Cc1c(-c2cccs2)cc(-c2cccs2)[nH]c1=O,0.7 µg/mL
20,Cc1ccc(CONS(=O)(=O)c2cc(C)ccc2C)cc1,5.2 µg/mL
21,Cc1cccc(Nc2nc(CC(=O)O)cs2)c1,24.6 µg/mL
22,CCCn1c(SCC(=O)N2CCOCC2)nnc1-c1ccncc1,> 52.1 µg/mL
23,Cc1ccccc1-c1noc(C(C)NC(=O)c2ccco2)n1 (stereo not drawn),37.5 µg/mL
24,CN(C)C(=O)c1cc([N+](=O)[O-])ccc1O,> 31.5 µg/mL

row,Structure (SMILES),solubility kinetic
1,Cn1cc(C(=O)OCC(=O)N2CCCCC2)c2ccccc21,> 45.1 µg/mL
2,CC(C)OC(=O)c1ccc2nc3ccccc3nc2c1,1 µg/mL
3,S=c1[nH]ccn1-c1ccc(Cl)cc1,29.2 µg/mL
4,COc1ccc(C(=O)C[N+]2(C)CCOCC2)cc1.[I-],> 37.5 µg/mL
5,Cc1cc(C)cc(CC2CC(=O)N(c3cc(C)ccc3C)C2=O)c1 (stereo not drawn),17.5 µg/mL
6,CCOC(=O)C1CCN(CC(O)COCc2ccc(Cl)cc2)CC1.Cl (stereo not drawn),57.5 µg/mL
7,Cc1cccc(NC(=O)Nc2c(C)n(C)n(-c3ccccc3)c2=O)c1,> 50.5 µg/mL
8,O=C1CCCN1C(=O)CSc1ncnc2sccc12,> 44 µg/mL
9,CN(Cc1ccccc1)C1CCNCC1.Cl,> 41.6 µg/mL
10,COc1ccccc1OCCC(=O)Nc1ccc2c(c1)OCO2,> 47.3 µg/mL
11,CC(C)N(Cc1cc2ccccc2[nH]c1=O)C(=O)c1cccc([N+](=O)[O-])c1,3.4 µg/mL
12,COC(=O)c1ccc(CNC(=O)C23CC4CC(CC(C4)C2)C3)cc1,6.2 µg/mL
13,Cc1nc(NC(=O)c2c(-c3ccccc3)noc2C)sc1C(=O)N(C)C,> 55.6 µg/mL
14,Cc1ccccc1C(=O)Nc1cccc(NC(=O)c2cccnc2)c1,45.8 µg/mL
15,Cc1ccc(S(=O)(=O)N2CCCc3ccccc32)cc1C,2.3 µg/mL
16,O=C(Nc1ccccc1)[C@@H]1CCCN1S(=O)(=O)c1ccc(Cl)cc1,6.8 µg/mL
17,N#Cc1c(N2CCOCC2)nsc1-c1ccc(C(F)(F)F)cc1,< 0.2 µg/mL
18,Cc1ccc(S(=O)(=O)N2CCOCC2)cc1NC(=O)COC(=O)C1(C)CC1(Cl)Cl (stereo not drawn),> 69.8 µg/mL
19,CN(Cc1ccccc1)S(=O)(=O)c1ccc(Cl)c(C(=O)N2CCC(C(N)=O)CC2)c1,> 67.5 µg/mL
20,O=C1COc2ccc(S(=O)(=O)N3CCCC3)cc2N1,> 42.3 µg/mL
21,Cc1ccccc1OS(=O)(=O)c1cn(C)c(=O)n(C)c1=O,> 46.5 µg/mL
22,Cc1cc(NS(=O)(=O)c2cc(Cl)sc2Cl)no1,> 47 µg/mL
